Measurements taken from patent publication US6649797B2, “Compounds and methods of use to treat infectious diseases” (The Picower Institute for Medical Research, priority 1996, dated 2003).
Like-named read-outs stand apart in the source and are kept apart here.

Legend:
[1] = Toxicity in mice, median lethal dose by intraperitoneal injection; assay type: in vivo, mouse; details: for LD50: mouse, in vivo, ip, read-out: LD50 ± standard deviation
Procedure: The doses of compounds of the invention found to be lethal to 50% of the mice (LD50) were determined by intraperitoneal injection of groups of five animals with increasing doses of each compound. CNI-0294 was administered from 0, 2, 10, 20, 40, 80, 160, 320, 640, 1280 mg/kg in 0.5 ml of water/HCl; CNI-1594 at 0, 2.4, 5, 10, 20, 40, 80 mg/kg in 0.5 ml of water/HCl; CNI-1794 at 0, 20, 50, 80 mg/kg in 0.5 ml of water/HCl; and CNI-1894 at 0, 10, 20, 40, 80, 240, 480, 960 mg/kg in water/HCl. […] The percentage of animals in each group which died were utilized to calculate the LD50 by non-linear curve fitting with the Enzfit software (Elsevier Bioscience; Cambridge, UK) programmed with the Chou equation (Chou 1976, J Theor Biol 39:253-276)).

[2] = tested on: Plasmodium falciparum; test: Antimalarial activity in vitro, [3H]-hypoxanthine incorporation; assay type: cell-based; details: for IC50: Plasmodium falciparum
Excerpt: The antimalarial properties of the compounds of the invention can be analyzed by techniques, assays and experimental animal models well known in the art. For example, the inhibition of growth of Plasmodium falciparum in vitro by the compounds may be assessed by the hypoxanthine-incorporation method (Desjardins et al., 1979, Antimicrob. Ag. Chemother. 16:710-718). […] The in vivo efficacy of the compounds can also be tested in mouse models in which parasitemia is enumerated following administration of the compound (Ager, A. L. 1984, Rodent malaria models, pp 225-264. In Handbook of Experimental Pharmacology vol. 68, Antimalarial Drugs, Peters and Richards eds, Springer-Verlag, Berlin).
The antimalarial activity of the compounds was determined essentially as described in Desjardins et al. supra. Fifty μl of various concentrations of a compound of the invention, chloroquine, or pyrimethamine were added to the wells of microtiter plates, followed by 200 μl of ring-stage, synchronized, P. falciparum-infected erythrocytes (final hematocrit=1.5%, final parasitemia=1-5%). The plates were incubated for 24 hr in a candle jar kept at 37° C., and then 25 μl of [^3H]-hypoxanthine (Amersham, Arlington Heights, ILL.; 2.5 μl Ci/well) was added. The plates were then incubated for a further 24 hr, before harvesting onto Unifilter-96 GF/C filter-microplates (Packard; Meriden, Conn.). Twenty-five μl of Microscint scintillation fluid (Packard) was added to each well of the filter-microplate, which was subsequently counted in a Top-count microplate scintillation counter (Packard). The percent of [^3H]-hypoxanthine uptake relative to control infect-erythrocytes was used to determine the IC50 value for the compounds by non-linear regression for LD50 determination.

[3] = tested on: HIV-1; test: AZT and Compound No. 2 in combination, HIV-1 infected monocyte cultures, RT activity; assay type: cell-based; details: for reverse transcriptase activity in supernatant: (−) No. 2
Procedure: Primary human monocytes were obtained from peripheral blood by Ficoll-Hypaque centrifugation and adherence to plastic as described previously. Gartner S. P., et al., 1986, Science 233:215. Briefly, after Ficoll-Hypaque (Pharmacia) separation, PBMCs were washed 4 times with DMEM (the last wash was done at 800 rpm to remove platelets) and resuspended in monocyte culture medium [DMEM supplemented with 1 mM glutamine, 10% heat-inactivated human serum, 1% penicillin+streptomycin mixture (Sigma)] at a density of 6×10^6 cells/ml. Cells were seeded in 24-well plates (1 ml per well) and incubated for 2 h at 37° C, 5% CO2. Following incubation, cells were washed 3 times with DMEM to remove non-adherent cells and incubation was continued in monocyte culture medium supplemented with 250 U/ml human M-CSF (Sigma). Cells were allowed to mature for 7 days prior to infection with the monocyte-tropic strain, HIV-1ADA. Nuovo, G. J., et al., 1992, Diagn. Mol. Pathol. 1:98. Two hours after infection, cells were washed with medium and cultured in RPMI supplemented with 10% human serum. In experiments where PCR analysis was performed, virus was pretreated with RNAse-free DNAse (Boehinger-Mannheim) for 2 h at room temperature and then filtered though a 0.2 μm pore nitrocellulose filter prior to infection.
For the reverse transcriptase (RT) assay, 10 μl of culture supernatant was added to 40 μl of reaction mixture (final composition was 50 mM Tris-HCl, pH 7.8; 20 MM KCl; 5 MM MgCl2; 1 mM DTT; 0.1% Triton X-100; 0.2 OD/ml polyA; 0.2 OD/ml oligo(dT)12-18; and 40 μCi/ml ^3H-dTTP (76 Ci/mmol, DuPont) and incubated 2 hr at 37° C. 5 μl of the reaction mixture was then spotted onto the DE 81 (Whatman) paper. Paper was air dried and washed 5 times with 5% Na2HPO4, followed by rinsing with distilled water. After air drying, paper was put on a Flexi Filter plate (Packard), covered with scintillation fluid and counted in a Top Count Microplate Counter (Packard). Results are expressed as counts per minute in 1 ml of supernatant (cpm/ml).
In view of these premises, the effects on HIV-1 replication in human monocyte cultures of the various concentrations of AZT, alone or in combination with 100 nM Compound No. 2, were tested using the protocols of Sections 6.2.1 and 6.2.2. Drugs were added to the monocyte cultures together with HIV-1 at about 10^5 TCID/ml. The concentration of drugs was maintained on refeeding. HIV-1 replication was assessed by assay of the supernatant for reverse transcriptase activity. The results are expressed as mean ± std. dev. (cpm×10^−3) in Table V.

[4] = tested on: HIV-1; test: HIV-1 production in cultured monocytes at fixed 100 nM; assay type: cell-based; details: monocytes infected 10 days prior to assay (10 ng p24/10^6 cells), percentage of untreated control
Procedure: Alternatively, the compounds may all be compared for inhibition of HIV replication at a fixed concentration. Presented in Table II are compounds that were used at a concentration of 100 nM to inhibit the production of HIV-1 in cultured monocytes infected with HIV-1 10 days prior to assay (10 ng of p24/10^6 cells). The production of HIV-1 in each treated culture is reported as percentage of untreated control.

[5] = In vitro metabolism with mouse liver post-mitochondrial supernatant and NADPH; assay type: in vitro ADME
Procedure: Several female ND4 Swiss Webster mice were euthanized by carbon dioxide inhalation and the livers excised and rinsed with ice cold phosphate buffered saline (pH 7.4). The livers were minced, gently homogenized in 50 mM phosphate buffer (pH 7.4) with a Dounce homogenizer, and centrifuged at 9600× g for 20 min. The post-mitochondrial supernatant was kept, glycerol added to 20%, and frozen at −70° C in 1.0 ml aliquots until used. For each incubation, 1.0 ml of a 1.0 mg/ml drug solution was added to 3.0 ml of 50 mM phosphate buffer (pH 7.4), 1.0 ml of 2 mg/ml NADPH in 50 mM phosphate (pH 7.4), and 1.0 ml of the post-mitochondrial supernatant. Five hundred μl of each incubate was then immediately transferred to an ice-cold tube to provide the zero-time sample, and addition 500 μl aliquots removed to ice-cold tubes at 8, 15, 30, and 60 min. The samples were then extracted, and analyzed by HPLC as described in section 7.1. Control incubations were also performed where drug or post-10 mitochondrial supernatant was omitted. […] Peaks in the CNI compound incubations which increased over time, and were not present in control samples lacking the enzyme preparation were treated as putative metabolites.

[6] = tested on: HIV-1ADA; test: Anti-HIV activity in primary human monocytes, day 9 (Table IX, FIG. 12C); assay type: cell-based; details: Human immunodeficiency virus 1, Monocyte, 216 h; day 9 after infection; >10 μM = 50% inhibition not achieved at maximal concentration; read-out: IC50
Procedure: Monocytes infected with HIV-1ADA were cultured in the presence of CNI-H0294 and CNI-H3094 in various concentrations. Nine days after infection, RT activity in culture supernatants was quantified. The results are presented as percent of total RT activity in untreated cultures (control). Three independent samples were assayed for each drug concentration, and the standard deviation was less than 15%.
[…] A 50% inhibitory concentration (IC50) was determined at day 9 after infection.

[7] = Pharmacokinetics in mice (plasma, HPLC); assay type: in vivo, mouse
Procedure: Standard addition curves for each test compound were constructed by adding increased amounts of drug to mouse or human A^+ plasma (Long Island Blood Services; Melville, N.Y). […] The column was washed with 1.0 ml of water and then eluted with 1.0 ml of 10 mM tetramethylammonium chloride/10 mM heptane sulfonate/4.2 mM H3PO4/95% CH3CN/5% H2O (Buffer C). The eluted sample was reduced to dryness in a rotary evaporator and resuspended in 1.0 ml Buffer A.
Two hundred μl of the resuspended sample was injected onto a Hewlett-Packard model 1090 high performance liquid chromatography system (HPLC)(Wilmington, Del.) equipped with a photodiode array ultraviolet/visible spectrophotometric detector, autosampler, and Chemstation operating software. The column used was a 250×4.6 mm Zorbax RX-C8 column (Mac-Mod Analyticals; Chadd's Ford, Pa.) kept at room temperature and run at 1.5 ml/min. The mobile phase used was Buffer A and 10 mM tetramethylammonium chloride/10 mM heptane sulfonate/4.2 mM H3PO4/75% CH3CN/25% H2O (Buffer B), with all runs initiated at 10% Buffer B. A linear 30 min gradient to 60% Buffer B was then performed, followed by a 4 min reverse gradient to initial conditions.
Female ND4 Swiss Webster mice (21-24 g) were obtained from Harlan Sprague Dawley (Indianapolis, Ind.) and randomly placed in groups of five in cages with free access to food and water. […] The other CNI compounds were administered intraperitoneally or by oral gavage as a solution in water titrated with sufficient HCl to dissolve the drug. At various time points, ranging from 5 min to 4 days, a single group of animals was euthanized by carbon dioxide inhalation and bled by cardiac puncture using heparin as an anticoagulant. The blood from the five mice in the group was pooled and centrifuged at 14000× g for 10 min. The volume of plasma was measured, and equal volume of Buffer A added, and the mixture extracted and analyzed as described above, except that the dried eluates were resuspended in 200 μl Buffer A and 100 μl was injected onto the high performance liquid chromatography (HPLC) system.
The area under the plasma concentration-time curve (AUC) was determined, and bioavailability was measured as AUCoral/AUCi.p. A and B represent the zero time intercept of the distribution and elimination phases respectively, and a and β the respective slopes of the phases multiplied by 2.303. The t/2α and t1/2β are calculated half-lives of the drug in each phase (0.693/α and 0.693/β respectively). The volume of distribution (VD) was calculated as dose/B, and the total clearance rate (Cltot) calculated as β*VD. Cmax and tmax are the maximal plasma concentration and time of this measurement, respectively.

[8] = female, ND4 Swiss Webster, mouse, plasma, ip, 50 mg/kg, vehicle water
[9] = mouse, i.p., 50 mg/kg, vehicle water

Structure (SMILES): CC(=O)c1ccc(Nc2cc(C)nc(N)n2)cc1 [Compound No. 17, 2-amino-4-(4-acetylphenyl)amino-6-methylpyrimidine]
- LD50 [1]: 48.93 ± 0.12 mg/kg

Structure (SMILES): CCN(CC)CCCC(C)Nc1ccnc2cc(Cl)ccc12 (centres unmarked) [Chloroquine]
- IC50 ([2]; DD2, clone Dd2, Chloroquine column, unit inferred): 0.123 ± 0.00726 µM
- IC50 ([2]; FCR3, clone FCR-3, Chloroquine column, unit inferred): 0.105 ± 0.00998 µM
- IC50 ([2]; HB3, clone HB3, Chloroquine column, unit inferred): 0.00673 ± 0.00016 µM
- IC50 ([2]; clone D10, Chloroquine column, unit inferred): 0.027 ± 0.00242 µM
- IC50 ([2]; clone W2mef, Chloroquine column, unit inferred): 0.144 ± 0.0133 µM

Structure (SMILES): CCc1nc(N)nc(N)c1-c1ccc(Cl)cc1 [Pyrimethamine]
- IC50 ([2]; DD2, clone Dd2, ± standard deviation, read-out: IC50): 104 ± 9.79 µM
- IC50 ([2]; clone W2mef, ± standard deviation, read-out: IC50): 17.8 ± 13.5 µM

Structure (SMILES): Cc1cn([C@H]2C[C@H](N=[N+]=[N-])[C@@H](CO)O2)c(=O)[nH]c1=O [AZT]
- reverse transcriptase activity in supernatant ([3]; day-7, 10 pM AZT, mean ± std. dev.): 0.92 ± 0.21 cpm×10^−3
- reverse transcriptase activity in supernatant ([3]; day-7, 100 pM AZT): 0.79 ± 0.14 cpm×10^−3
- reverse transcriptase activity in supernatant ([3]; day-7, 1 nM AZT): 0.60 ± 0.28 cpm×10^−3
- reverse transcriptase activity in supernatant ([3]; day-7, 10 nM AZT): 0.05 ± 0.02 cpm×10^−3
- reduction in RT activity ([3]; day-11, 10 pM AZT alone): about 20%
- reverse transcriptase activity in supernatant ([3]; day-11, 10 pM AZT): 1.63 ± 0.81 cpm×10^−3
- reverse transcriptase activity in supernatant ([3]; day-11, 100 pM AZT): 1.34 ± 0.59 cpm×10^−3
- reverse transcriptase activity in supernatant ([3]; day-11, 1 nM AZT): 1.07 ± 0.49 cpm×10^−3
- reverse transcriptase activity in supernatant ([3]; day-11, 10 nM AZT): 0.08 ± 0.03 cpm×10^−3

Structure (SMILES): CC(=O)c1cccc(C(C)=O)c1N [2,6-diacetylaniline]
- Viral Production [4]: 28%

Structure (SMILES): CC(=O)c1cc(C(C)=O)cc(N(C)C)c1 [N,N-dimethyl-3,5-diacetylaniline]
- Viral Production [4]: 25%

Structure (SMILES): CC(=O)c1cc(N)cc(C(C)=O)c1 [CNI-1894, 3,5-diacetylaniline]
- metabolites produced [5]: one minor and one major metabolite
- metabolic conversion (drug altered, as judged by peak area) ([5]; 60 min incubation): 17.28%
- visible signs of toxicity [1]: died 2-3 days post injection, and showed no sign of any immediate toxicity
- LD50 [1]: 258.6 ± 1.37 mg/kg
- Viral Production [4]: 20%
- antimalarial activity ([2]; clone Dd2, highest concentration tested 200 μM): inactive at the highest concentration tested
- IC50 [6]: > 10 µM
- AUC [7, 8]: 20200 ng·h/mL
- Cmax [7, 8]: 13400 ng/mL
- Tmax ([7]; female, ND4 Swiss Webster, plasma, ip, mouse, i.p., 50 mg/kg, vehicle water, read-out: tmax (converted)): 5 min
- maximal plasma level ([7]; mice, single i.p. injection (50 mg/kg; CNI-1594 20 mg/kg)): 13.43 µg/mL
- A (zero time intercept of the distribution phase) [7, 9]: 14.93 µg/mL
- B (zero time intercept of the elimination phase) [7, 9]: 0.15 µg/mL
- Cltot [7, 9]: 3.30 mL/min
- t1/2α [7, 9]: 34.8 min
- t1/2β [7, 9]: 1386 min
- α [7, 9]: 1.19 h⁻¹
- β [7, 9]: 0.03 h⁻¹

Structure (SMILES): CC(=O)c1cncc(C(C)=O)c1 [3,5-diacetylpyridine]
- Viral Production [4]: 58%
